Measurements reported in US12319664B2, “Herbicidally active 3-phenylisoxazoline-5-carboxamides of cyclopentenylcarboxylic acid derivatives” (Bayer Aktiengesellschaft, priority 2018, dated 2025).

Columns and labels:
ECHCG = experiment: Post-emergence herbicidal action against ECHCG; format: in vivo, Echinochloa crus-galli; conditions: application rate 80 g/ha, rated visually after about 3 weeks
Method in brief: (§1)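 Greenhouse post-emergence test: compound sprayed onto green plant parts at one-leaf stage as WP or EC preparation with 0.5% additive, water rate 600 l/ha. Percent activity scored by eye after roughly 3 weeks, where 0% matches controls and 100% means death.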

AMARE = experiment: Post-emergence herbicidal action against AMARE; format: in vivo, Amaranthus retroflexus; conditions: application rate 80 g/ha, rated visually about 3 weeks after treatment
Method in brief: as §1

POLCO = experiment: Post-emergence herbicidal action against POLCO; format: in vivo, Polygonum convolvulus; conditions: application rate 80 g/ha, rated visually about 3 weeks after treatment
Method in brief: as §1

VIOTR = experiment: Post-emergence herbicidal action against VIOTR; format: in vivo, Viola tricolor; conditions: application rate 80 g/ha, rated visually about 3 weeks after treatment
Procedure: [table] 2. Post-emergence herbicidal action against harmful plants and crop plant compatibility Seeds of monocotyledonous and dicotyledonous weeds and crop plants are placed in sandy loam in plastic or wood-fibre pots, covered with soil and cultivated in a greenhouse under controlled growth conditions. 2 to 3 weeks after sowing, the test plants are treated at the one-leaf stage. The compounds of the invention, formulated in the form of wettable powders (WP) or as emulsion concentrates (EC), are then sprayed onto the green parts of the plants as aqueous suspension or emulsion with addition of 0.5% additive at a water application rate of 600 l/ha (converted). After the test plants have been kept in the greenhouse under optimum growth conditions for about 3 weeks, the activity of the preparations is rated visually in comparison to untreated controls. For example, 100% activity=the plants have died, 0% activity=like control plants.

PHBPU = experiment: Post-emergence herbicidal action against PHBPU; format: in vivo, Pharbitis purpurea; conditions: application rate 80 g/ha, rated visually about 3 weeks after treatment
Method in brief: as §1

LOLRI = experiment: Post-emergence herbicidal action against LOLRI; format: in vivo, Lolium rigidum; conditions: application rate 80 g/ha, rated visually after about 3 weeks
Method in brief: as §1

ALOMY = experiment: Post-emergence herbicidal action against ALOMY; format: in vivo, Alopecurus myosuroides; conditions: application rate 80 g/ha, rated visually after about 3 weeks
Method in brief: as §1

SETVI = experiment: Post-emergence herbicidal action against SETVI; format: in vivo, Setaria viridis; conditions: application rate 80 g/ha, rated visually after about 3 weeks
Method in brief: as §1

VERPE = experiment: Post-emergence herbicidal action against VERPE; format: in vivo, Veronica persica; conditions: application rate 80 g/ha
Method in brief: as §1

ABUTH = experiment: Post-emergence herbicidal action against ABUTH; format: in vivo, Abutilon theophrasti; conditions: application rate 80 g/ha, rated visually about 3 weeks after treatment
Method in brief: as §1

HORMU = experiment: Post-emergence herbicidal action against HORMU; format: in vivo, Hordeum murinum; conditions: application rate 80 g/ha
Method in brief: as §1

STEME = experiment: Post-emergence herbicidal action against STEME; format: in vivo, Stellaria media; conditions: application rate 80 g/ha, rated visually about 3 weeks after treatment
Method in brief: as §1

AVEFA = experiment: Post-emergence herbicidal action against AVEFA; format: in vivo, Avena fatua; conditions: application rate 80 g/ha, rated visually after about 3 weeks
Method in brief: as §1

SMILES | Herbicidal action against [%] ECHCG (ECHCG) [%] | Herbicidal action against [%] AMARE (AMARE) [%] | Herbicidal action against [%] POLCO (POLCO) [%] | Herbicidal action against [%] VIOTR (VIOTR) [%] | Herbicidal action against [%] PHBPU (PHBPU) [%] | Herbicidal action against [%] LOLRI (LOLRI) [%] | Herbicidal action against [%] ALOMY (ALOMY) [%] | Herbicidal action against [%] SETVI (SETVI) [%] | Herbicidal action against [%] VERPE (VERPE) [%] | Herbicidal action against [%] ABUTH (ABUTH) [%] | Herbicidal action against [%] HORMU (HORMU) [%] | Herbicidal action against [%] STEME (STEME) [%] | Herbicidal action against [%] AVEFA (AVEFA) [%]
CC1(C(=O)NC2C=CC(C(=O)O)C2)CC(c2cc(F)cc(C#N)c2)=NO1 (mixture of isomers) [Example I-075] | 90 | 90 | 90 | 90 | 90 | 100 | 100 | 80 | 90 | 80 | 100 | 90 | 
COCCOC(=O)C1C=CC(NC(=O)C2(C)CC(c3cc(F)cc(C#N)c3)=NO2)C1 (mixture of isomers) [Example I-082] | 90 | 90 | 90 | 90 | 90 | 100 | 100 | 90 | 90 | 90 | 100 | 90 | 100
CC1(C(=O)NC2C=CC(C(=O)OCCCl)C2)CC(c2cc(F)cc(C#N)c2)=NO1 (mixture of isomers) [Example I-083] | 90 | 90 | 90 | 90 | 90 | 100 | 100 | 80 | 90 | 90 | 100 | 90 | 100
COC(=O)C1C=CC(NC(=O)C2(C)CC(c3cc(F)cc(C#N)c3)=NO2)C1 (mixture of isomers) [Example I-084] | 90 | 90 | 90 | 90 | 90 | 100 | 100 | 90 | 90 | 90 | 100 | 100 | 100
N#Cc1cccc(C2=NOC(C(=O)NC3C=CC(C(=O)O)C3)(C(F)(F)F)C2)c1 (mixture of isomers) [Example I-085] | 90 | 90 | 80 | 80 | 90 | 100 | 90 | 80 | 90 | 90 | 100 | 80 | 100
COC(=O)C1C=CC(NC(=O)C2(C(F)(F)F)CC(c3cccc(C#N)c3)=NO2)C1 (mixture of isomers) [Example I-087] | 80 | 90 | 90 | 90 | 90 | 100 | 100 | 80 | 90 | 90 | 100 | 90 | 100
